Data as given in the NIST ThermoML archive (doi:10.1021/je401036f).

Assay: xn = mol fraction of the nth substance listed
Details: 101 kPa, Liquid; for viscosity: Concentric cylinders viscometry; for mass density: Vibrating tube method

CC(O)CN (stereo not given) [1-amino-2-propanol] + CCCCO
Details	mass density [kg/m3]	viscosity [mPa·s]
288.15 K, x1 = 0.1	827.167	4.019
288.15 K, x1 = 0.2005	841.339	4.952
288.15 K, x1 = 0.3	855.625	6.238
288.15 K, x1 = 0.3999	870.246	8.046
288.15 K, x1 = 0.5	885.14	10.48
288.15 K, x1 = 0.6001	900.478	13.85
288.15 K, x1 = 0.7	916.099	18.2
288.15 K, x1 = 0.8	932.069	24.34
288.15 K, x1 = 0.8997	948.249	32.26
288.15 K, x1 = 1	964.544	43.7
293.15 K, x1 = 0.1	823.338	3.444
293.15 K, x1 = 0.2005	837.455	4.218
293.15 K, x1 = 0.3	851.736	5.202
293.15 K, x1 = 0.3999	866.053	6.617
293.15 K, x1 = 0.5	881.2	8.455
293.15 K, x1 = 0.6001	896.524	10.88
293.15 K, x1 = 0.7	912.152	14.08
293.15 K, x1 = 0.8	928.119	18.34
293.15 K, x1 = 0.8997	944.296	23.93
293.15 K, x1 = 1	960.598	31.68
298.15 K, x1 = 0.1	819.488	2.989
298.15 K, x1 = 0.2005	833.571	3.62
298.15 K, x1 = 0.3	847.825	4.398
298.15 K, x1 = 0.3999	862.123	5.507
298.15 K, x1 = 0.5	877.169	6.858
298.15 K, x1 = 0.6001	892.563	8.782
298.15 K, x1 = 0.7	908.181	11.03
298.15 K, x1 = 0.8	924.144	14.18
298.15 K, x1 = 0.8997	940.31	18.16
298.15 K, x1 = 1	956.618	23.54
303.15 K, x1 = 0.1	815.611	2.615
303.15 K, x1 = 0.2005	829.669	3.129
303.15 K, x1 = 0.3	843.892	3.756
303.15 K, x1 = 0.3999	858.167	4.639
303.15 K, x1 = 0.5	873.195	5.721
303.15 K, x1 = 0.6001	888.575	7.156
303.15 K, x1 = 0.7	904.186	8.892
303.15 K, x1 = 0.8	920.144	11.17
303.15 K, x1 = 0.8997	936.303	14.06
303.15 K, x1 = 1	952.612	17.9
308.15 K, x1 = 0.1	811.706	2.298
308.15 K, x1 = 0.2005	825.735	2.726
308.15 K, x1 = 0.3	839.932	3.23
308.15 K, x1 = 0.3999	854.42	3.944
308.15 K, x1 = 0.5	869.288	4.788
308.15 K, x1 = 0.6001	884.561	5.904
308.15 K, x1 = 0.7	900.162	7.231
308.15 K, x1 = 0.8	916.116	8.949
308.15 K, x1 = 0.8997	932.266	11.1
308.15 K, x1 = 1	948.577	13.88
313.15 K, x1 = 0.1	807.768	2.03
313.15 K, x1 = 0.2005	821.766	2.389
313.15 K, x1 = 0.3	835.94	2.801
313.15 K, x1 = 0.3999	850.406	3.377
313.15 K, x1 = 0.5	865.257	4.049
313.15 K, x1 = 0.6001	880.518	4.929
313.15 K, x1 = 0.7	896.106	5.957
313.15 K, x1 = 0.8	912.054	7.272
313.15 K, x1 = 0.8997	928.196	8.9
313.15 K, x1 = 1	944.515	10.96
318.15 K, x1 = 0.1	803.791	1.801
318.15 K, x1 = 0.2005	817.764	2.104
318.15 K, x1 = 0.3	831.911	2.445
318.15 K, x1 = 0.3999	846.355	2.915
318.15 K, x1 = 0.5	861.194	3.454
318.15 K, x1 = 0.6001	876.438	4.159
318.15 K, x1 = 0.7	892.017	4.969
318.15 K, x1 = 0.8	907.96	5.989
318.15 K, x1 = 0.8997	924.096	7.238
318.15 K, x1 = 1	940.423	8.798
323.15 K, x1 = 0.1	799.764	1.606
323.15 K, x1 = 0.2005	813.705	1.865
323.15 K, x1 = 0.3	827.834	2.144
323.15 K, x1 = 0.3999	842.264	2.535
323.15 K, x1 = 0.5	857.087	2.973
323.15 K, x1 = 0.6001	872.324	3.541
323.15 K, x1 = 0.7	887.889	4.192
323.15 K, x1 = 0.8	903.828	4.994
323.15 K, x1 = 0.8997	919.961	5.96
323.15 K, x1 = 1	936.293	7.166
328.15 K, x1 = 0.1	795.685	1.436
328.15 K, x1 = 0.2005	809.606	1.662
328.15 K, x1 = 0.3	823.708	1.887
328.15 K, x1 = 0.3999	838.127	2.218
328.15 K, x1 = 0.5	852.936	2.579
328.15 K, x1 = 0.6001	868.161	3.047
328.15 K, x1 = 0.7	883.72	3.568
328.15 K, x1 = 0.8	899.655	4.211
328.15 K, x1 = 0.8997	915.789	4.976
328.15 K, x1 = 1	932.13	5.915
333.15 K, x1 = 0.1	791.549	1.302
333.15 K, x1 = 0.2005	805.451	1.499
333.15 K, x1 = 0.3	819.532	1.699
333.15 K, x1 = 0.3999	833.936	1.973
333.15 K, x1 = 0.5	848.734	2.286
333.15 K, x1 = 0.6001	863.951	2.663
333.15 K, x1 = 0.7	879.505	3.099
333.15 K, x1 = 0.8	895.441	3.618
333.15 K, x1 = 0.8997	911.577	4.225
333.15 K, x1 = 1	927.93	4.986
